Here are results for 25 molecules from patent publication US20210300909A1, “IMMUNOMODULATORS, COMPOSITIONS AND METHODS THEREOF” (BETTA PHARMACEUTICALS CO., LTD, priority 2018, published 2021).

Structures are written as SMILES. Read-outs that look alike come from different tables or passages of the source.

The assay concerns the target T1, PD-1/PD-L1 protein/protein interaction (Homo sapiens, UniProt Q9NZQ7).
T1 construct: Recombinant human PD-L1 protein (19-238) with a His-tag at the C-terminus; purchased AcroBiosystems PD1-H5229 (PD-L1); PD1-H5257 (PD-1)
The assay is described as follows: PD-1/PD-L1 homogenous time-resolved fluorescence (HTRF) binding assay. Here is the method: Resolved Fluorescence (HTRF) Binding Assay
The assays were conducted in a standard black 384-well polystyrene plate with a final volume of 20 μL. Inhibitors were first serially diluted in DMSO and then added to the plate wells before the addition of other reaction components. The final concentration of DMSO in the assay was 1%. The assays were carried out at 25° C. in the PBS buffer (pH 7.4) with 0.05% Tween-20 and 0.1% BSA. […] Plates were centrifuged and proteins were preincubated with inhibitors for 40 min. The incubation was followed by the addition of 10 μL of HTRF detection buffer supplemented with Europium cryptate-labeled anti-human IgG (PerkinElmer-AD0212) specific for Fc and anti-His antibody conjugated to SureLight®-Allophycocyanin (APC, PerkinElmer-AD0059H). After centrifugation, the plate was incubated at 25° C. for 60 min. […] Final concentrations in the assay were […], 10 nM PD-L1, nM europium anti-human IgG and 20 nM anti-His-Allophycocyanin. IC50 determination was performed by fitting the curve of percent control activity versus the log of the inhibitor concentration using the GraphPad Prism 5.0 software.

[1] abbreviates: HTRF, recombinant human PD-1 (Fc tag) / PD-L1 (His-tag), 25° C., PBS pH 7.4, class symbols, read-out: IC50.

T1 sequence (Q9NZQ7 19-238): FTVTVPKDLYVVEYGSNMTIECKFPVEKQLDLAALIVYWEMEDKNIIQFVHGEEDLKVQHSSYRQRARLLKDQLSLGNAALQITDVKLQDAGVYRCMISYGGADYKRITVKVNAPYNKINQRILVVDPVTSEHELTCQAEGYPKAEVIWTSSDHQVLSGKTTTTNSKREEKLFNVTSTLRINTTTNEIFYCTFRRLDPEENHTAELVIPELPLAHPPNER

As to `COc1cc2oc(-c3cccc(-c4cccc(OCCCN5CCOCC5)c4)c3C)nc2cc1CN1CCC(F)(F)CC1C(=O)O` (stereo not shown) [Compound 16, 4,4-difluoro-1-((6-methoxy-2-(2-methyl-3′-(3-morpholinopropoxy)-[1,1′-biphenyl]-3-yl)benzo[d]oxazol-5-yl)methyl)piperidine-2-carboxylic acid], the IC50 is 25 to 150 nM.
In turn, `COc1cc2oc(-c3cccc(-c4cccc(CC5OC5CN5CCOCC5)c4C)c3C)nc2cc1CN1CCCCC1C(=O)O` (stereo not shown) [Compound 27, 1-((2-(2,2′-dimethyl-3′-((3-(morpholinomethyl)oxiran-2-yl)methyl)-[1,1′-biphenyl]-3-yl)-6-methoxybenzo[d]oxazol-5-yl)methyl)piperidine-2-carboxylic acid] displayed an IC50 of 25 to 150 nM.
The same measure, in the same setting: in the case of `COc1cc2oc(-c3cccc(-c4cccc5c4CCN5C(=O)CCN4CCOCC4)c3C)nc2cc1CN1CCOCC1C(=O)O` (stereo not shown) [Compound 38, 4-((6-methoxy-2-(2-methyl-3-(1-(3-morpholinopropanoyl)indolin-4-yl)phenyl)benzo[d]oxazol-5-yl)methyl)morpholine-3-carboxylic acid] it was under 25 nM.
In the case of `COc1cc2oc(-c3cccc(-c4cccc(OCCCN5CCOCC5)c4)c3C)nc2cc1CNCCO` [Compound 1, 2-(((6-methoxy-2-(2-methyl-3′-(3-morpholinopropoxy)-[1,1′-biphenyl]-3-yl)benzo[d]oxazol-5-yl)methyl)amino)ethan-1-ol], under setting [1], the IC50 was under 25 nM.
`COc1cc2nc(-c3cccc(-c4cccc(OCCCN5CCOCC5)c4F)c3C)n(C)c2cc1N1CCCCC1C(=O)O` (stereo not shown) [Compound 12, 1-(2-(2′-fluoro-2-methyl-3′-(3-morpholinopropoxy)-[1,1′-biphenyl]-3-yl)-5-methoxy-1-methyl-1H-benzo[d]imidazol-6-yl)piperidine-2-carboxylic acid] came in with an IC50 of under 25 nM.
As to `COc1cc2oc(-c3cccc(-c4cccc(OCCCN5CCOCC5)c4C#N)c3C)nc2cc1CN1CCOCC1C(=O)O` (stereo not shown) [Compound 18, 4-((2-(2′-cyano-2-methyl-3′-(3-morpholinopropoxy)-[1,1′-biphenyl]-3-yl)-6-methoxybenzo[d]oxazol-5-yl)methyl)morpholine-3-carboxylic acid], the IC50 was under 25 nM.
As for `COc1cc2oc(-c3cccc(-c4cccc(OCCCN5CCOCC5)c4)c3C)nc2cc1CN(C)C` [Compound 2, 1-(6-methoxy-2-(2-methyl-3′-(3-morpholinopropoxy)-[1,1′-biphenyl]-3-yl)benzo[d]oxazol-5-yl)-N,N-dimethylmethanamine], the IC50 under setting [1] was 25 to 150 nM.
`COc1cc2oc(-c3cccc(-c4cccc(OCCCN5CCOCC5)c4C)c3C)nc2cc1CN1CCCCC1C(=O)O` (stereo not shown) [Compound 3, 1-((2-(2,2′-dimethyl-3′-(3-morpholinopropoxy)-[1,1′-biphenyl]-3-yl)-6-methoxybenzo[d]oxazol-5-yl)methyl)piperidine-2-carboxylic acid]: the IC50 was 1 nM.
On the same count and under the same terms, as for `COc1cc2oc(-c3cccc(-c4cccc(C/C=C/CN5CCOCC5)c4C)c3C)nc2cc1CN1CCCCC1C(=O)O` (stereo not shown) [Compound 6, (E)-1-((2-(2,2′-dimethyl-3′-(4-morpholinobut-2-en-1-yl)-[1,1′-biphenyl]-3-yl)-6-methoxybenzo[d]oxazol-5-yl)methyl)piperidine-2-carboxylic acid], the figure is under 25 nM; as for `COc1cc2oc(-c3cccc(-c4cccc(OCCCN5CCOCC5)c4F)c3C)nc2cc1CN1CCCCC1C(=O)O` (stereo not shown) [Compound 9, 1-((2-(2′-fluoro-2-methyl-3′-(3-morpholinopropoxy)-[1,1′-biphenyl]-3-yl)-6-methoxybenzo[d]oxazol-5-yl)methyl)piperidine-2-carboxylic acid], under 25 nM.
For the molecule `Cc1c(OCCCN2CCOCC2)cccc1-c1cccc(-c2nc3cc(CNCC(=O)O)c(N(C)C)cc3s2)c1C` [Compound 36, ((2-(2,2′-dimethyl-3′-(3-morpholinopropoxy)-[1,1′-biphenyl]-3-yl)-6-(dimethylamino)benzo[d]thiazol-5-yl)methyl)glycine], the IC50 under setting [1] lay within 25 to 150 nM.
Regarding `COc1cc2nc(-c3cccc(-c4cccc(OCCCN5CCOCC5)c4)c3C)n(C)c2cc1CN1CCCCC1C(=O)O` (stereo not shown) [Compound 33, 1-((5-methoxy-1-methyl-2-(2-methyl-3′-(3-morpholinopropoxy)-[1,1′-biphenyl]-3-yl)-1H-benzo[d]imidazol-6-yl)methyl)piperidine-2-carboxylic acid], the IC50 is under 25 nM.
In the case of `COc1cc2oc(-c3cccc(-c4cccc(OCCCN5CCOCC5)c4)c3C)nc2cc1CN(C)CC(=O)O` [Compound 19, N-((6-methoxy-2-(2-methyl-3′-(3-morpholinopropoxy)-[1,1′-biphenyl]-3-yl)benzo[d]oxazol-5-yl)methyl)-N-methylglycine], under setting [1], the IC50 was in the range of 25 to 150 nM.
In turn, `Cc1c(OCCCN2CCOCC2)cccc1-c1cccc(-c2nc3cc(CN(C)CC(=O)O)c(N(C)C)cc3o2)c1C` [Compound 37, N-((2-(2,2′-dimethyl-3′-(3-morpholinopropoxy)-[1,1′-biphenyl]-3-yl)-6-(dimethylamino)benzo[d]oxazol-5-yl)methyl)-N-methylglycine] returned an IC50 of under 25 nM.
Same read-out and setting: in the case of `COc1cc2c(cc1CN1CCC(F)(F)CC1C(=O)O)nc(-c1cccc(-c3cccc(OCCCN4CCOCC4)c3)c1C)n2C` (stereo not shown) [Compound 15, 4,4-difluoro-1-((6-methoxy-1-methyl-2-(2-methyl-3′-(3-morpholinopropoxy)-[1,1′-biphenyl]-3-yl)-1H-benzo[d]imidazol-5-yl)methyl)piperidine-2-carboxylic acid] it was 25 to 150 nM; in that of `COc1cc2oc(-c3cccc(-c4cccc(CCCN5CCOCC5)c4)c3C)nc2cc1CN1CCCCC1C(=O)O` (stereo not shown) [Compound 4, 1-((6-methoxy-2-(2-methyl-3′-(3-morpholinopropyl)-[1,1′-biphenyl]-3-yl)benzo[d]oxazol-5-yl)methyl)piperidine-2-carboxylic acid], under 25 nM.
`COc1cc2oc(-c3cccc(-c4cccc(CCCCN5CCOCC5)c4)c3C)nc2cc1CN1CCCCC1C(=O)O` (stereo not shown) [Compound 10, 1-((6-methoxy-2-(2-methyl-3′-(4-morpholinobutyl)-[1,1′-biphenyl]-3-yl)benzo[d]oxazol-5-yl)methyl)piperidine-2-carboxylic acid]: the IC50 was 25 to 150 nM.
With `COc1cc2c(cc1CN1CCOCC1C(=O)O)nc(-c1cccc(-c3cccc(OCCCN4CCOCC4)c3)c1C)n2C` (stereo not shown) [Compound 14, 4-((6-methoxy-1-methyl-2-(2-methyl-3′-(3-morpholinopropoxy)-[1,1′-biphenyl]-3-yl)-1H-benzo[d]imidazol-5-yl)methyl)morpholine-3-carboxylic acid], the IC50 was under 25 nM.
`COc1cc2oc(-c3cccc(-c4cccc(NC(=O)NCCNCCO)c4)c3C)nc2cc1CN1CCCCC1C(=O)O` (stereo not shown) [Compound 5, 1-((2-(3′-(3-(2-((2-hydroxyethyl)amino)ethyl)ureido)-2-methyl-[1,1′-biphenyl]-3-yl)-6-methoxybenzo[d]oxazol-5-yl)methyl)piperidine-2-carboxylic acid]: the IC50 was 25 to 150 nM.
As to `COc1cc2oc(-c3cccc(-c4ccccc4)c3C)nc2cc1CN1CCCCC1C(=O)O` (stereo not shown) [Compound 23, 1-((6-methoxy-2-(2-methyl-[1,1′-biphenyl]-3-yl)benzo[d]oxazol-5-yl)methyl)piperidine-2-carboxylic acid], the IC50 (HTRF, recombinant human PD-1 (Fc tag) / PD-L1 (His-tag), 25° C., PBS pH 7.4, numeric values, read-out: IC50) came out at 0.61 nM.
In turn, `COc1cc2oc(-c3cccc(-c4cccc(OCCCN5CCOCC5)c4)c3C)nc2cc1CN1CCCC1C(=O)O` (stereo not shown) [Compound 20, ((6-methoxy-2-(2-methyl-3′-(3-morpholinopropoxy)-[1,1′-biphenyl]-3-yl)benzo[d]oxazol-5-yl)methyl)proline] registered an IC50 of under 25 nM.
`COc1cc2sc(-c3cccc(-c4cccc(OCCCN5CCOCC5)c4)c3C)nc2cc1CN1CCCC1C(=O)O` (stereo not shown) [Compound 25, ((6-methoxy-2-(2-methyl-3′-(3-morpholinopropoxy)-[1,1′-biphenyl]-3-yl)benzo[d]thiazol-5-yl)methyl)proline] registered an IC50 of under 25 nM.
For `Cc1c(-c2ccccc2)cccc1-c1nc2cc(CN3CCCCC3C(=O)O)c(OC(C)C)cc2o1` (stereo not shown) [Compound 24, 1-((6-isopropoxy-2-(2-methyl-[1,1′-biphenyl]-3-yl)benzo[d]oxazol-5-yl)methyl)piperidine-2-carboxylic acid], the IC50 is under 25 nM.
Take `COc1cc2nc(-c3cccc(-c4cccc(OCCCN5CCOCC5)c4)c3C)sc2cc1CN1CCCC1C(=O)O` (stereo not shown) [Compound 26, ((5-methoxy-2-(2-methyl-3′-(3-morpholinopropoxy)-[1,1′-biphenyl]-3-yl)benzo[d]thiazol-6-yl)methyl)proline]: the IC50 was under 25 nM.
In turn, `CCCNC(=O)NCCN(C)CCCOc1cccc(-c2cccc(-c3nc4cc(CN5CCCCC5C(=O)O)c(OC)cc4o3)c2C)c1C` (stereo not shown) [Compound 32, 1-((2-(2,2′-dimethyl-3′-(3-(methyl(2-(3-propylureido)ethyl)amino)propoxy)-[1,1′-biphenyl]-3-yl)-6-methoxybenzo[d]oxazol-5-yl)methyl)piperidine-2-carboxylic acid] returned an IC50 of under 25 nM.
